# Measured values taken from patent US20130296273A1, “TREATMENT OF BLOOD CANCER” (Threshold Pharmaceuticals, Inc., priority 2010, published 2013).
# Entries after “also recorded” stand apart in the source; their conditions may differ.
# What was measured:
# 5T33vt cells = assay: Cell cycle analysis in 5T33vt cells; assay type: cell-based, murine; details: hypoxia selective manner
# [1] = test system: Karpas-707, LP-1, MMS1, and RPMI-8226 cells; assay: Cell cycle analysis in multiple myeloma cell lines under hypoxia; assay type: cell-based, human; details: hypoxic conditions; Karpas-707, LP-1, MMS1, RPMI-8226 cells
# [2] = test system: cyclin D1/2/3, CDK4/6, p21cip-1, p27kip-1, pRb, CDK2 in RPMI-8226, LP-1, MMS1 and Karpas-707 multiple myeloma cells; assay: Western blotting of cell cycle machinery; assay type: cell-based, human
# LP-1 cells = assay: Apoptosis in LP-1 cells; assay type: cell-based, human
# Method: (§1) TH-302 (5 μM) decreased the accumulation of HIF1α in hypoxic RPMI-8226 cells. VEGFa secretion was reduced by TH-302 in 5T33vt cells. *p<0.05, **p<0.01, ***p<0.001, compared to 20% O2 (n=3).
# (§2) By employing a set of defined gas mixtures (0%, 1%, 1.25%, 1.5%, 2%, 3%, 20% O2) for drug treatment of the multiple myeloma cells, the oxygen concentration dependent activation of TH-302 was tested in RPMI-8226, LP-1, MMS1 and 5T33vt multiple myeloma cells. […] As the O2 concentration was reduced to 0%, the fraction of apoptotic cells increased to about 70-75%.
# [3] = test system: human and murine multiple myeloma cells; assay: Flow cytometry analysis of apoptosis / toxicity in multiple myeloma cells; assay type: cell-based; details: also RPMI-8226, 5T33vt, MMS1, Karpas-707 cells
# Method: as §2
# [4] = test system: BCL-2, BCL-xL, cleaved caspase-3, 8, 9 and PARP; assay: Western blotting of apoptosis proteins; assay type: cell-based
# HIF1α in RPMI-8226 cells = assay: HIF1α accumulation/expression in hypoxic cells; assay type: cell-based, human
# Method: as §1, §2
# [5] = test system: VEGFa secretion in 5T33vt cells; assay: VEGFa secretion; assay type: cell-based, murine
# Method: as §1, §2
# [6] = test system: RPMI-8226, LP-1, MMS1 and 5T33vt multiple myeloma cells; assay: Oxygen concentration dependent activation of TH-302 (defined gas mixtures); assay type: cell-based, human and murine
# Method: as §2
# 5T33MMvv mouse = 5T33MMvv mouse multiple myeloma model, prophylactic treatment for 3 weeks; assay type: in vivo; details: for multiple myeloma cell apoptosis vs vehicle-treated mice: bone marrow
# Method: 5T33MMvv mice were treated prophylactically with TH-302 for 3 weeks. From day 1, the following were observed. […] Therefore, the cancer cytotoxic effect of TH-302 was associated with the hypoxic nature of multiple myeloma cells in the bone marrow.
# naive mice = assay: Toxicity in TH-302 treated naive mice; assay type: in vivo, mouse; details: compared to vehicle-treated naive mice
# [7] = test system: anti-apoptotic and pro-apoptotic Bcl-2 family proteins; assay: Immunoblotting of Bcl-2 family proteins, TH-302, bortezomib and combination; assay type: cell-based
# Method: To further determine the mechanism of induction of apoptosis by this combination, the effect of TH-302, bortezomib and the combination on anti-apoptotic and pro-apoptotic Bcl-2 family proteins using immunoblotting was tested.
# AML = assay: Clinical administration of TH-302 in advanced leukemia, AML patients; assay type: in vivo
# Method: (§3) Clinical investigations were conducted to determine the safety, tolerability and clinically relevant disease responses of TH-302 in patients with acute leukemias, advanced phase chronic myelogenous leukemia (CML), high risk myelodysplastic syndromes, advanced myelofibrosis or relapsed/refractory chronic lymphocytic leukemia (CLL). TH-302 was administered as a 30 to 60 minute intravenous infusion daily for 5 days followed by 2 weeks off therapy. As needed, the 5 days of dosing could be spread out over 8 days. Patients who successfully completed a 3-week treatment cycle without evidence of significant treatment-related toxicity or progressive disease were continued on treatment and could receive treatment for up to six cycles.
# (§4) Twenty-one patients have been treated in the study at TH-302 daily doses ranging from 120 mg/m^2 to 460 mg/m^2. All subjects had either AML or ALL and had generally received multiple prior therapies for their disease prior to enrolling for the study.
# ALL = assay: Clinical administration of TH-302 in advanced leukemia, ALL patients; assay type: in vivo; details: one ALL patient
# Method: as §3, §4
structure (smiles),measurement,setting,value
Cn1c(COP(=O)(NCCBr)NCCBr)cnc1[N+](=O)[O-] [TH-302],cell cycle arrest,5T33vt cells,induced Go/G1 cell cycle arrest
same,cell cycle arrest,[1],induced Go/G1 cell cycle arrest
same,CDK2 expression,[2],remained undisturbed
same,"cyclin D1/2/3, CDK4/6, p21, p27 and pRb expression",[2],down-regulating
same,apoptosis,"LP-1 cells; LP-1 cells under hypoxia, dose dependence",triggered specific apoptosis in a dose-dependent manner
same,apoptosis,"LP-1 cells; LP-1 cells, TH-302 5 μM",induced apoptosis
same,apoptosis,"[3]; hypoxic conditions, flow cytometry",induced dose-dependent apoptosis
same,toxicity in normoxic conditions,"[3]; normoxic conditions, even at high concentrations",very low toxicity
same,anti-apoptotic proteins BCL-2 and BCL-xL,[4],down-regulation
same,"expression of cleaved proapoptotic protein caspase-3, 8, 9 and PARP",[4],up-regulation
same,accumulation of HIF1α,"HIF1α in RPMI-8226 cells; hypoxic RPMI-8226 cells, TH-302 5 μM",decreased
same,expression of HIF1α,"HIF1α in RPMI-8226 cells; hypoxic condition, similar in 5T33vt, LP-1, Karpas-707 cells",reduced
same,VEGFa secretion,[5],reduced; also recorded: significantly decreased
same,fraction of apoptotic cells,[6]; O2 concentration reduced to 0%,70-75%
same,threshold of activating TH-302,"[6]; gas mixtures 0%, 1%, 1.25%, 1.5%, 2%, 3%, 20% O2",< 1.5 % O2
same,microvessel density (MVD) in the bone marrow vs vehicle-treated mice,5T33MMvv mouse; 12.5 mg/kg,19 % decrease
same,paraprotein secretion vs vehicle-treated mice,5T33MMvv mouse; 12.5 mg/kg,32 % decrease
same,multiple myeloma cell apoptosis vs vehicle-treated mice,5T33MMvv mouse; 12.5 mg/kg,2.5 fold
same,microvessel density (MVD) in the bone marrow vs vehicle-treated mice,5T33MMvv mouse; 25 mg/kg,20 % decrease
same,paraprotein secretion vs vehicle-treated mice,5T33MMvv mouse; 25 mg/kg,77 % decrease
same,multiple myeloma cell apoptosis vs vehicle-treated mice,5T33MMvv mouse; 25 mg/kg,2.1 fold
same,microvessel density (MVD) in the bone marrow vs vehicle-treated mice,5T33MMvv mouse; 50 mg/kg,26 % decrease
same,paraprotein secretion vs vehicle-treated mice,5T33MMvv mouse; 50 mg/kg,54 % decrease
same,multiple myeloma cell apoptosis vs vehicle-treated mice,5T33MMvv mouse; 50 mg/kg,3.1 fold
same,"toxicity in terms of body weight, HGB, RBC, WBC, HCT and MVD",naive mice,no substantial toxicity
same,anti-apoptotic Mcl-1,[7],decreased
same,expression of anti-apoptotic Bcl-2 and Bcl-xL,[7],decreased
same,pro-apoptotic BH-3 member Noxa and cleavage of BID,[7],induced
same,platelet count,AML; one AML patient started at 120 mg/m^2/day,gradually improving
same,peripheral blast count,"AML; one AML patient started at 120 mg/m^2/day, after each cycle",decreased
same,disease response,"AML; one AML patient, 240 mg/m^2/day, after cycle 1",stable disease
same,disease response,"AML; two AML patients, 120 mg/m^2/day, iv daily for 5 days of 21 day cycle",stable disease
same,disease response,"ALL; 170 mg/m^2/day, bone marrow biopsy after cycle 1",partial response
same,disease response,"ALL; 240 mg/m^2/day, after cycle 1",stable disease
same,disease response,"ALL; 330 mg/m^2/day, after cycle 1",stable disease
"CC(C)C[C@H](NC(=O)[C@H](Cc1ccccc1)NC(=O)c1cnccn1)B(O)O [bortezomib, reference compound]",anti-apoptotic Mcl-1,[7],accumulated
same,expression of anti-apoptotic Bcl-2 and Bcl-xL,[7],decreased
same,pro-apoptotic BH-3 member Noxa and cleavage of BID,[7],induced
